Laboratory results: ChEMBL document CHEMBL1138438, “Structural-activity relationship study of highly-functionalized imidazolines as potent inhibitors of nuclear transcription factor-kappaB mediated IL-6 production” (Bioorg Med Chem, 2009)
Activity calls are given as the source filed them. No cut-off for these calls is given here.

Legend:
Blood [1] = test: Antiinflammatory activity in human whole blood assessed as inhibition of IL-1-beta-stimulated IL6 production preincubated 2 hrs before IL1-beta challenge measured after 22 hrs by ELISA; assay type: functional, tissue-based
HeLa [2] = test: Effect on cell cycle arrest in TNF-alpha-stimulated human HeLa cells transfected with NFkappaB-Luc assessed as total background cell aggregate and debris level at 0.1 uM after 8 hrs by using propidium iodide staining by FACS analysis; assay type: functional
[3] = Cytotoxicity against IL-1-beta-stimulated human whole blood lymphocytes assessed as survival cell count in millions at 10 uM after 24 hrs by trypan blue staining-based hemocytometry
HeLa [4] = test: Cell cycle arrest in TNF-alpha-stimulated human HeLa cells transfected with NFkappaB-Luc assessed as accumulation at total S phase at 5 uM after 8 hrs by using propidium iodide staining by FACS analysis; assay type: functional
HeLa [5] = test: Cell cycle arrest in TNF-alpha-stimulated human HeLa cells transfected with NFkappaB-Luc assessed as accumulation at diploid G2 phase at 1 uM after 8 hrs by using propidium iodide staining by FACS analysis; assay type: functional
HeLa [6] = test: Cell cycle arrest in TNF-alpha-stimulated human HeLa cells transfected with NFkappaB-Luc assessed as accumulation at diploid S phase at 0.05 uM after 8 hrs by using propidium iodide staining by FACS analysis; assay type: functional
HeLa [7] = test: Effect on cell cycle arrest in TNF-alpha-stimulated human HeLa cells transfected with NFkappaB-Luc assessed as total background cell aggregate and debris level at 5 uM after 8 hrs by using propidium iodide staining by FACS analysis; assay type: functional
HeLa [8] = test: Cell cycle arrest in TNF-alpha-stimulated human HeLa cells transfected with NFkappaB-Luc assessed as accumulation at total S phase at 1 uM after 8 hrs by using propidium iodide staining by FACS analysis; assay type: functional
HeLa [9] = test: Cell cycle arrest in TNF-alpha-stimulated human HeLa cells transfected with NFkappaB-Luc assessed as accumulation at G2/G1 phase at 5 uM after 8 hrs by using propidium iodide staining by FACS analysis; assay type: functional
HeLa [10] = test: Stimulation of NF-kappaB-mediated gene transcription expressed in human HeLa cells for 30 mins before TNFalpha challenge measured after 8 hrs by steady-glo luciferase reporter gene assay; assay type: cell-based
HeLa [11] = test: Effect on cell cycle arrest in human HeLa cells transfected with NFkappaB-Luc assessed as total background cell aggregate and debris level at 20 uM after 8 hrs by using propidium iodide staining by FACS analysis; assay type: functional
HeLa [12] = test: Cell cycle arrest in TNF-alpha-stimulated human HeLa cells transfected with NFkappaB-Luc assessed as accumulation at diploid stage at 20 uM after 8 hrs by using propidium iodide staining by FACS analysis; assay type: functional
HeLa [13] = test: Effect on cell cycle arrest in human HeLa cells transfected with NFkappaB-Luc assessed as cell aggregate level at 20 uM after 8 hrs by using propidium iodide staining by FACS analysis; assay type: functional
HeLa [14] = test: Cell cycle arrest in TNF-alpha-stimulated human HeLa cells transfected with NFkappaB-Luc assessed as accumulation at G2/G1 phase at 0.1 uM after 8 hrs by using propidium iodide staining by FACS analysis; assay type: functional
HeLa [15] = test: Cell cycle arrest in TNF-alpha-stimulated human HeLa cells transfected with NFkappaB-Luc assessed as accumulation at diploid G2 phase at 0.5 uM after 8 hrs by using propidium iodide staining by FACS analysis; assay type: functional
HeLa [16] = test: Effect on cell cycle arrest in TNF-alpha-stimulated human HeLa cells transfected with NFkappaB-Luc assessed as total background cell aggregate and debris level at 0.05 uM after 8 hrs by using propidium iodide staining by FACS analysis; assay type: functional
HeLa [17] = test: Cell cycle arrest in TNF-alpha-stimulated human HeLa cells transfected with NFkappaB-Luc assessed as accumulation at total S phase at 0.5 uM after 8 hrs by using propidium iodide staining by FACS analysis; assay type: functional
HeLa [18] = test: Cell cycle arrest in TNF-alpha-stimulated human HeLa cells transfected with NFkappaB-Luc assessed as accumulation at diploid G1 phase at 0.5 uM after 8 hrs by using propidium iodide staining by FACS analysis; assay type: functional
HeLa [19] = test: Cell cycle arrest in TNF-alpha-stimulated human HeLa cells transfected with NFkappaB-Luc assessed as accumulation at G2/G1 phase at 1 uM after 8 hrs by using propidium iodide staining by FACS analysis; assay type: functional
HeLa [20] = test: Effect on cell cycle arrest in TNF-alpha-stimulated human HeLa cells transfected with NFkappaB-Luc assessed as cell debris level at 1 uM after 8 hrs by using propidium iodide staining by FACS analysis; assay type: functional
HeLa [21] = test: Cell cycle arrest in TNF-alpha-stimulated human HeLa cells transfected with NFkappaB-Luc assessed as accumulation at diploid G2 phase at 5 uM after 8 hrs by using propidium iodide staining by FACS analysis; assay type: functional
HeLa [22] = test: Effect on cell cycle arrest in TNF-alpha-stimulated human HeLa cells transfected with NFkappaB-Luc assessed as cell debris level at 0.05 uM after 8 hrs by using propidium iodide staining by FACS analysis; assay type: functional
[23] = Cytotoxicity against IL-1-beta-stimulated human whole blood lymphocytes assessed as survival cell count in millions at 20 uM after 24 hrs by trypan blue staining-based hemocytometry
HeLa [24] = test: Cell cycle arrest in TNF-alpha-stimulated human HeLa cells transfected with NFkappaB-Luc assessed as accumulation at G2/G1 phase at 20 uM after 8 hrs by using propidium iodide staining by FACS analysis; assay type: functional
HeLa [25] = test: Effect on cell cycle arrest in human HeLa cells transfected with NFkappaB-Luc assessed as cell debris level at 20 uM after 8 hrs by using propidium iodide staining by FACS analysis; assay type: functional
HeLa [26] = test: Cell cycle arrest in TNF-alpha-stimulated human HeLa cells transfected with NFkappaB-Luc assessed as accumulation at diploid S phase at 20 uM after 8 hrs by using propidium iodide staining by FACS analysis; assay type: functional
HeLa [27] = test: Effect on cell cycle arrest in TNF-alpha-stimulated human HeLa cells transfected with NFkappaB-Luc assessed as cell debris level at 5 uM after 8 hrs by using propidium iodide staining by FACS analysis; assay type: functional
HeLa [28] = test: Cell cycle arrest in human HeLa cells transfected with NFkappaB-Luc assessed as accumulation at G2/G1 phase at 20 uM after 8 hrs by using propidium iodide staining by FACS analysis; assay type: functional
Blood [29] = test: Antiinflammatory activity in human whole blood assessed as inhibition of IL-1-beta-stimulated IL6 production preincubated 2 hrs before IL1-beta challenge measured after 18 hrs by ELISA; assay type: functional, tissue-based
HeLa [30] = test: Cell cycle arrest in TNF-alpha-stimulated human HeLa cells transfected with NFkappaB-Luc assessed as accumulation at diploid S phase at 0.5 uM after 8 hrs by using propidium iodide staining by FACS analysis; assay type: functional
HeLa [31] = test: Cell cycle arrest in human HeLa cells transfected with NFkappaB-Luc assessed as accumulation at total S phase at 20 uM after 8 hrs by using propidium iodide staining by FACS analysis; assay type: functional
HeLa [32] = test: Cell cycle arrest in human HeLa cells transfected with NFkappaB-Luc assessed as accumulation at diploid stage at 20 uM after 8 hrs by using propidium iodide staining by FACS analysis; assay type: functional

SMILES: CCOC(=O)[C@]1(c2ccccc2)N=C(c2ccccc2)N(Cc2ccccc2)[C@@H]1c1ccccc1 (racemic)
- IC50 (Blood [1]): 2500 nM
- Activity (HeLa [2]): 0.58%
- Activity [3]: 0.92 mL⁻¹
- Activity (HeLa [4]): 19.8%
- Activity (HeLa [5]): 13.88%
- Activity (HeLa [6]): 22.8%
- Activity (HeLa [7]): 1.14%
- Activity (HeLa [8]): 22.9%
- Activity (HeLa [9]): 1.91%
- Activity (HeLa [10]): inactive
- Activity (HeLa [11]): 3.86%
- Activity (HeLa [12]): 100%
- Activity (HeLa [13]): 0%
- Activity (HeLa [14]): 1.92%
- Activity (HeLa [15]): 13.4%
- Activity (HeLa [16]): 1.06%
- Activity (HeLa [17]): 22.52%
- Activity (HeLa [18]): 64.08%
- Activity (HeLa [19]): 1.91%
- Activity (HeLa [20]): 4.88%
- Activity (HeLa [21]): 13.84%
- Activity (HeLa [22]): 2.47%
- Activity [23]: 0.98 mL⁻¹
- Activity (HeLa [24]): 1.9%
- Activity (HeLa [25]): 9.42%
- Activity (HeLa [26]): 19.29%
- Activity (HeLa [27]): 2.7%
- Activity (HeLa [28]): 1.9%
- Activity (Blood [29]): Dose-dependent effect
- IC50 (Blood [29]; read-out: IC50): 800 nM
- IC50 (Blood [29]; read-out: Log IC50 (converted)): 794 nM
- Activity (HeLa [30]): 22.52%
- Activity (HeLa [31]): 21.48%
- Activity (HeLa [32]): 100%
